Reference: ChEMBL document CHEMBL3745609, “Discovery of pyrazolopyrimidine phosphodiesterase 10A inhibitors for the treatment of schizophrenia” (Bioorg Med Chem Lett, 2016)
In brackets after ≈: the same amount, converted by molar mass. Each block holds one molecule with its values, some of them ahead of it. Activity calls are given as the source filed them. The rule behind the calls is not given here.

Tests used:
[1] = biological target: cAMP and cAMP-inhibited cGMP 3',5'-cyclic phosphodiesterase 10A (Homo sapiens, UniProt Q9Y233); experiment: Inhibition of PDE10A (unknown origin) by IMAP assay
[2] = Aqueous solubility of the compound at pH 7; assay type: physicochemical
[3] = biological target: Voltage-gated inwardly rectifying potassium channel KCNH2 (Homo sapiens, UniProt Q12809); experiment: Inhibition of MK-499 binding to human ERG
[4] = biological target: T1, Nuclear receptor subfamily 1 group I member 2 (Homo sapiens, UniProt O75469); experiment: Activation of PXR (unknown origin); assay type: ADME
T1 sequence (O75469 whole entry): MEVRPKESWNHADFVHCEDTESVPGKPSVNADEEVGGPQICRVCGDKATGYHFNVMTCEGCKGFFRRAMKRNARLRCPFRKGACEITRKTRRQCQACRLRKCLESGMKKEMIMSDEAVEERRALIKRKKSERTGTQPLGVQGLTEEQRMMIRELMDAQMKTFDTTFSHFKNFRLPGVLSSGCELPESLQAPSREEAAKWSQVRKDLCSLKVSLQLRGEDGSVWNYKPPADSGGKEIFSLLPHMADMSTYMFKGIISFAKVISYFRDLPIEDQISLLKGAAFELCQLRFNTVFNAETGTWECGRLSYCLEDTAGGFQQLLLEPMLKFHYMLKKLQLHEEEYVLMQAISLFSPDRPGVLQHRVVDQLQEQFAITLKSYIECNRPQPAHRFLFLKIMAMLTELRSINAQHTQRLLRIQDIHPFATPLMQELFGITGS

[5] = Plasma protein binding in rat; assay type: ADME, cell-free; details: read-out: PPB (converted)
[6] = biological target: T2, Cytochrome P450 3A4 (Homo sapiens, UniProt P08684); experiment: Inhibition of CYP3A4 (unknown origin); assay type: ADME
[7] = Plasma protein binding in iv dosed Wistar Hanover rat; assay type: ADME, organism-based; details: read-out: PPB (converted)
[8] = biological target: Cytochrome P450 2D6 (Homo sapiens, UniProt P10635); experiment: Inhibition of CYP2D6 (unknown origin); assay type: ADME
[9] = Clearance in rat; assay type: ADME, organism-based; details: in vivo
[10] = organism: Homo sapiens; experiment: Selectivity for PDE10A (unknown origin) over PDE (unknown origin)
[11] = biological target: Cytochrome P450 2C9 (Homo sapiens, UniProt P11712); experiment: Inhibition of CYP2C9 (unknown origin); assay type: ADME
[12] = Plasma clearance in iv dosed Wistar Hanover rat; assay type: ADME, organism-based
[13] = system: Rattus norvegicus; experiment: Cognition enhancing activity in rat assessed as increase in episodic like memory up to 1.5 mg/kg, po by novel object recognition assay; assay type: functional, organism-based
[14] = system: Salmonella typhimurium; experiment: Mutagenicity in Salmonella typhimurium up to 5000 ug/plate by 5-strain Ames test; assay type: toxicity, organism-based; details: salmonella enterica subsp. enterica serovar typhimurium
[15] = organism: Cavia porcellus; experiment: Toxicity in guinea pig; assay type: organism-based; details: in vivo
[16] = Inhibition of platelet aggregation factor (unknown origin); design: species or system Homo sapiens
[17] = Oral bioavailability in beagle dog; assay type: ADME, organism-based, Canis lupus familiaris; details: in vivo
[18] = system: Rattus norvegicus; experiment: Toxicity in rat assessed as influence on circulating prolactin level up to 30 mg/kg, po; assay type: organism-based; details: in vivo
[19] = Plasma protein binding in iv dosed rhesus monkey; assay type: ADME, organism-based, Macaca mulatta; details: read-out: PPB (converted)
[20] = system: Rhesus monkey; experiment: In-vivo occupancy at PDE10A in rhesus monkey assessed as inhibition of [11C]MK-8193 binding; assay type: functional, Macaca mulatta
[21] = biological target: T2, Cytochrome P450 3A4; experiment: Time dependent inhibition of CYP3A4 (unknown origin); assay type: ADME
[22] = Plasma clearance in iv dosed rhesus monkey; assay type: ADME, organism-based, Macaca mulatta
[23] = organism: Rattus norvegicus; experiment: Toxicity in rat assessed as decrease in body weight gain after 7 days; assay type: organism-based; details: in vivo, 168 h
[24] = organism: Rattus norvegicus; experiment: Toxicity in rat assessed as decrease in total body fat after 7 days; assay type: organism-based; details: in vivo, 168 h
[25] = organism: Rattus norvegicus; experiment: Toxicity in rat assessed as lean body mass after 7 days; assay type: organism-based; details: in vivo, 168 h
[26] = Terminal half life in iv dosed rhesus monkey; assay type: ADME, organism-based, Macaca mulatta; details: in vivo, read-out: beta t1/2 (converted)
[27] = Plasma protein binding in iv dosed human; assay type: ADME, organism-based; details: read-out: PPB (converted)
[28] = organism: Rattus norvegicus; experiment: Anti-psychotic activity in rat assessed as reversal of MK-801-induced prepulse inhibition; assay type: functional, organism-based
[29] = Plasma clearance in iv dosed beagle dog; assay type: ADME, organism-based, Canis lupus familiaris
[30] = system: Rattus norvegicus; experiment: In vivo inhibition of PDE10A in rat striatum assessed as increase in cGMP level at >3 mg/kg, po after 2 hrs relative to control; assay type: functional
[31] = system: P-gp; experiment: Substrate activity at human P-gp assessed as efflux ratio of permeability across basolateral to apical over apical to basolateral side; assay type: ADME; details: not told
[32] = Terminal half life in iv dosed beagle dog; assay type: ADME, organism-based, Canis lupus familiaris; details: in vivo, read-out: beta t1/2 (converted)
[33] = system: Rattus norvegicus; experiment: Cardiotoxicity in iv dosed rat; assay type: toxicity, organism-based; details: in vivo
[34] = Terminal half life in iv dosed Wistar Hanover rat; assay type: ADME, organism-based; details: in vivo, read-out: beta t1/2 (converted)
[35] = Plasma protein binding in iv dosed beagle dog; assay type: ADME, organism-based, Canis lupus familiaris; details: read-out: PPB (converted)
[36] = system: Rattus norvegicus; experiment: Toxicity in rat assessed as induction of catalepsy up to 30 mg/kg, po; assay type: organism-based; details: in vivo
[37] = system: Rhesus monkey; experiment: Potency index, ratio of THPP-1 Occ50 to compound Occ50 for in-vivo occupancy at PDE10A in rhesus monkey assessed as inhibition of [11C]MK-8193 binding; assay type: functional, Macaca mulatta
[38] = system: P-gp; experiment: Substrate activity at rat P-gp assessed as efflux ratio of permeability across basolateral to apical over apical to basolateral side; assay type: ADME; details: not told
[39] = Apparent passive permeability of the compound; assay type: physicochemical; details: not told
[40] = Oral bioavailability in Wistar Hanover rat; assay type: ADME, organism-based; details: in vivo
[41] = system: Rattus norvegicus; experiment: Anti-psychotic activity in rat assessed as plasma concentration needed to attenuate MK-801-induced hyperlocomotion at 1.5 mg/kg, po; assay type: functional
[42] = Lipophilicity, log D of the compound at pH 7 by HPLC method; assay type: physicochemical; details: buffer
[43] = Oral bioavailability in rhesus monkey; assay type: ADME, organism-based, Macaca mulatta; details: in vivo
[44] = system: Rattus norvegicus; experiment: Toxicity in rat up to 250 mg/kg after 7 days; assay type: organism-based; details: in vivo, 168 h

T2 sequence (P08684 whole entry): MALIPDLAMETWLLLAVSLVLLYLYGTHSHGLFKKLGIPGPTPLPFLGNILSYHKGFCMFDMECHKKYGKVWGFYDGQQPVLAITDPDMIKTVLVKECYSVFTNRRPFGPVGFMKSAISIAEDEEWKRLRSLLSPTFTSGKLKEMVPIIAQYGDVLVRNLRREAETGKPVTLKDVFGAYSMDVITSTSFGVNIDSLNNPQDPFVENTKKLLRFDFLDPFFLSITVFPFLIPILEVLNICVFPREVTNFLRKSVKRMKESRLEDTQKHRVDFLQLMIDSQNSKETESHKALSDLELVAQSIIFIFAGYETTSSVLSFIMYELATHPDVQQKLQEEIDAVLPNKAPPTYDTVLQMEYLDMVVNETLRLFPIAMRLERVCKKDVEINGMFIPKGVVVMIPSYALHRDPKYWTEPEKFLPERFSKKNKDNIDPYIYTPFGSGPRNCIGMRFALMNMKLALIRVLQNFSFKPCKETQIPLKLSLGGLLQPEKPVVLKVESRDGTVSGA
cAMP and cAMP-inhibited cGMP 3',5'-cyclic phosphodiesterase 10A, sequence (Q9Y233 whole entry): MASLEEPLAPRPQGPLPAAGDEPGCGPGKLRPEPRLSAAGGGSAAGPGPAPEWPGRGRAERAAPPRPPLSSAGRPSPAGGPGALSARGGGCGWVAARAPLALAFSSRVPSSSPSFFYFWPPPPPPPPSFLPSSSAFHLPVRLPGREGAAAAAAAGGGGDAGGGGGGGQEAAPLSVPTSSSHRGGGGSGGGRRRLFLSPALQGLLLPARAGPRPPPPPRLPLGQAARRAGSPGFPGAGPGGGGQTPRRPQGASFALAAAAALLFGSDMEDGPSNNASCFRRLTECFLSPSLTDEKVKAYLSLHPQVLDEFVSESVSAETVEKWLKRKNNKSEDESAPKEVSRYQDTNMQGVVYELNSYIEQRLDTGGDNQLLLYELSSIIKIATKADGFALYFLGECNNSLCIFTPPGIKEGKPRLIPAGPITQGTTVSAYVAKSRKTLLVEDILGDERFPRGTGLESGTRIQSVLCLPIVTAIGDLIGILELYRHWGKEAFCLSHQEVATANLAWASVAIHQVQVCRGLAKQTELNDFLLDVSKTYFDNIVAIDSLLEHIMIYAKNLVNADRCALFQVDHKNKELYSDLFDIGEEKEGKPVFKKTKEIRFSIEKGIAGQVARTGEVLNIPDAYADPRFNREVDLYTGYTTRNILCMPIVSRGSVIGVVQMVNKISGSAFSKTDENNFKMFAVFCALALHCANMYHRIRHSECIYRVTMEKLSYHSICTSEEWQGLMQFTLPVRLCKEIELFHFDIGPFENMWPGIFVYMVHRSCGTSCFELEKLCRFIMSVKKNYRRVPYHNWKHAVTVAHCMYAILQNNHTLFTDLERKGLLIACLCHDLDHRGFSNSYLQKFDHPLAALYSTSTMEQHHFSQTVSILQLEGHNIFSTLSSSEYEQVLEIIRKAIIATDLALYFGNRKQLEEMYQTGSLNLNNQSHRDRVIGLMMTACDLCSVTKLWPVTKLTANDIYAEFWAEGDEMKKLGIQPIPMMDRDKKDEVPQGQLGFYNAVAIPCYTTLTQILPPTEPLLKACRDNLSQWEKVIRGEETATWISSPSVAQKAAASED
Voltage-gated inwardly rectifying potassium channel KCNH2, sequence (Q12809 whole entry): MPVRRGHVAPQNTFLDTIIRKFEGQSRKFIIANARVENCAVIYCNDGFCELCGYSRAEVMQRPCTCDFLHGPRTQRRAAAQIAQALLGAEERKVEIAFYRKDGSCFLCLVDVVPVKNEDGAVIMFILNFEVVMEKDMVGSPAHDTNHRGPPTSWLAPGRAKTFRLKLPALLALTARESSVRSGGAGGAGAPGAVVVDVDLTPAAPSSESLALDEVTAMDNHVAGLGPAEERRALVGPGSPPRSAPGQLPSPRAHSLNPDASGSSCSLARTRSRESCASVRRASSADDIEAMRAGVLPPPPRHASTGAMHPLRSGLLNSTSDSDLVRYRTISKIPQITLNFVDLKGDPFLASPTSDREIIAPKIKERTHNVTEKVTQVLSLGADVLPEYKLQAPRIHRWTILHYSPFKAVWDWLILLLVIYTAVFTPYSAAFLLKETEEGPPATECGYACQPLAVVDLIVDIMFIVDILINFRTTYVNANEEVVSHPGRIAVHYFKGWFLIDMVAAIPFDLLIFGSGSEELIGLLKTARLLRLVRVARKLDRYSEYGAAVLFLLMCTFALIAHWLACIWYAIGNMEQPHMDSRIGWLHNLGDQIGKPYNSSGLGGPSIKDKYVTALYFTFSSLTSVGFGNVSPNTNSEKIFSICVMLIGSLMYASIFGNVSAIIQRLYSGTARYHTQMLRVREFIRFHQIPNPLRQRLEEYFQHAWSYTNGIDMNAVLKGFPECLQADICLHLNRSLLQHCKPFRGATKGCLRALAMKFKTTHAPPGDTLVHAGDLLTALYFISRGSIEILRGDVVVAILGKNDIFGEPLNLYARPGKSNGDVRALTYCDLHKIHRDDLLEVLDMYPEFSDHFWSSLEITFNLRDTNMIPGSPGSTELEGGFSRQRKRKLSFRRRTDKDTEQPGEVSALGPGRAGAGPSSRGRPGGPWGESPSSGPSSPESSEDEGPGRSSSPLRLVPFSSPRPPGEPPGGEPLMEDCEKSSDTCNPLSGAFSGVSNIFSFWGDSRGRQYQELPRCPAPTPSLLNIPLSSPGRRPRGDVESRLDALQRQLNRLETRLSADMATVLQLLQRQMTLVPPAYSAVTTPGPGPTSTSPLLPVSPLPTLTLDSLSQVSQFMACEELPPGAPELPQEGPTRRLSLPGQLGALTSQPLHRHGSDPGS
Cytochrome P450 2C9, sequence (P11712 whole entry): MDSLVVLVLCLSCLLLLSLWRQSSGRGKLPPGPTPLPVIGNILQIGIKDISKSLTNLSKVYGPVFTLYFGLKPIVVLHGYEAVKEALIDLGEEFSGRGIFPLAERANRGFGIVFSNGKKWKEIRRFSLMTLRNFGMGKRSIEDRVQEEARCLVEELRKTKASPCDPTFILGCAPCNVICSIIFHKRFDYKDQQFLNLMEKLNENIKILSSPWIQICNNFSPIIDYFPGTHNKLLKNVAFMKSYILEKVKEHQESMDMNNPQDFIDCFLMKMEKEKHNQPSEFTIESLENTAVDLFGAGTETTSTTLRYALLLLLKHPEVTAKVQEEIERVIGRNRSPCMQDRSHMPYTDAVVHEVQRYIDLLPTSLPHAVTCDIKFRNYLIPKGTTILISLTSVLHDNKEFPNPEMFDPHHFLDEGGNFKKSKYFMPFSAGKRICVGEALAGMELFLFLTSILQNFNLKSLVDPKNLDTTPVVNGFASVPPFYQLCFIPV
Cytochrome P450 2D6, sequence (P10635 whole entry): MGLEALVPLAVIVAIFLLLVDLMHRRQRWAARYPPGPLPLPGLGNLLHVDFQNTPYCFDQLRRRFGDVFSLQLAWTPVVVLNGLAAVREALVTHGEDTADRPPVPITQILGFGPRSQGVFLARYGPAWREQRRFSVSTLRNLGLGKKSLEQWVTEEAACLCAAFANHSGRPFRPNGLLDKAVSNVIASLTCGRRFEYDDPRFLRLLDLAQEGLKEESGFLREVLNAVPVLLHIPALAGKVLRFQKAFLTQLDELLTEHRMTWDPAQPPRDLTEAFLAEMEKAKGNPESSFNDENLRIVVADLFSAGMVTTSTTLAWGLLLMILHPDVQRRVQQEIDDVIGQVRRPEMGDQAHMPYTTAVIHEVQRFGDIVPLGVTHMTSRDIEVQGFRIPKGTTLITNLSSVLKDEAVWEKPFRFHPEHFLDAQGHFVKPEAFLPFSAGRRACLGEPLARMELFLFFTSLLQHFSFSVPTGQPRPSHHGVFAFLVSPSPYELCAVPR

Ki [1]: 15.5 nM
SMILES: Cc1nc(C)c(CNc2nc(OC[C@H]3C[C@H]3c3ccccn3)nc(Cl)c2C)s1 (racemic)

Ki [1]: 24000 nM
solubility [2]: > 500 µM
SMILES: Clc1cc(Cl)n2nccc2n1

Ki [1]: 3.6 nM
SMILES: Cc1nc(C)c(CNc2nc(OCC3CC3c3ncccn3)nc(Cl)c2C)s1 (racemic)

EC50 [4]: > 250000 nM
fraction unbound [5]: 0.08
IC50 [6]: > 50000 nM
solubility [2]: 196 µM (≈ 58.7 µg/mL)
SMILES: Cc1nc(C)c(CNc2cc(C3CC3)nc3ccnn23)s1
INH [3]: 52 µM

Ki [1]: 3.1 nM
SMILES: Cc1nc(C)c(CNc2nc(CCCOc3ccccn3)nc(Cl)c2C)s1

Ki [1]: 8.6 nM
SMILES: Cc1nc(C)c(CNc2nc(OC[C@@H]3C[C@H]3c3ccccn3)nc(Cl)c2C)s1

Ki [1]: 0.006 nM
SMILES: Cc1nc(C)c(CNc2nc(OCC3CC3c3cc4ccccn4n3)nc(Cl)c2C)s1 (racemic)

Ki [1]: 20.3 nM
SMILES: Cc1nc(C)c(CNc2nc(OCC3CC3c3cncn3C)nc(Cl)c2C)s1 (centres undefined)

Ki [1]: 8.3 nM
SMILES: Cc1nc(C)c(CNc2nc(OCC3CC3c3ccncc3)nc(Cl)c2C)s1 (centres undefined)

solubility [2]: 4 µM (≈ 1.57 µg/mL)
SMILES: Cn1cc(-c2ccncc2)c(-c2ccc(OCc3ccc4ccccc4n3)cc2)n1 [MARDEPODECT]

Ki [1]: 1.7 nM
SMILES: Cc1nc(C)c(CNc2nc(CC[C@H]3C[C@@H]3c3ccccn3)nc(Cl)c2C)s1 (racemic)

EC50 [4]: 19000 nM
fraction unbound [7]: 0.015
IC50 [8]: 8200 nM
IC50 [6]: 17000 nM
solubility [2]: 2 µM (≈ 0.618 µg/mL)
SMILES: Cc1nc(C)c(CNc2nc(C3CC3)nc(Cl)c2C)s1

Ki [1]: 4.1 nM
SMILES: Cc1nc(C)c(CNc2nc(NCCCc3ccccn3)nc(Cl)c2C)s1

EC50 [4]: 5600 nM
clearance [9]: 29 mL/min/kg
Selectivity ratio [10]: > 2500
fraction unbound [5]: 0.01
IC50 [6]: 3800 nM
IC50 [11]: 5200 nM
solubility [2]: 162 µM (≈ 62.3 µg/mL)
SMILES: Cc1c(Cl)nc(OC[C@H]2C[C@@H]2c2ccccn2)nc1NCc1cnn(C)c1
INH [3]: > 60 µM

Ki [1]: 0.4 nM
SMILES: Cc1nc(C)c(CNc2nc(CCCCc3ccccn3)nc(Cl)c2C)s1

Ki [1]: 102 nM
SMILES: Cc1nc(C)c(CNc2nc(OCC3CC3C3CCCN3C)nc(Cl)c2C)s1 (racemic; form 1)

Ki [1]: 54 nM
SMILES: Cc1nc(C)c(CNc2nc(OCC3CC3C3CCCN3C)nc(Cl)c2C)s1 (racemic; form 2)

Ki [1]: 0.01 nM
SMILES: Cc1nc(C)c(CNc2nc(OCC3CC3c3ccc4ccccc4n3)nc(Cl)c2C)s1 (racemic)

Ki [1]: 1.1 nM
SMILES: Cc1nc(C)c(CNc2nc(OCCCc3ccccn3)nc(Cl)c2C)s1

EC50 [4]: 2300 nM
clearance [12]: 60 mL/min/kg
SMILES: Cc1nc(C)c(CNc2nc(OCCCc3ccc4ccccc4n3)nc(Cl)c2C)s1
INH [3]: 3.8 µM

Ki [1]: 1.4 nM
SMILES: Cc1nc(C)c(CNc2nc(OCC3CC3c3ccc(C#N)cn3)nc(Cl)c2C)s1 (racemic)

Ki [1]: 1.1 nM
SMILES: Cc1nc(C)c(CNc2nc(CCC#Cc3ccccn3)nc(Cl)c2C)s1

Ki [1]: 3.1 nM
SMILES: Cc1nc(C)c(CNc2nc(OCC#Cc3ccccn3)nc(Cl)c2C)s1

solubility [2]: 150 µM (≈ 30.5 µg/mL)
SMILES: Cc1c(Cl)nc(C2CC2)nc1Cl

Ki [1]: 0.07 nM
SMILES: Cc1nc(C)c(CNc2nc(OC[C@H]3C[C@@H]3c3ccccn3)nc(Cl)c2C)s1 (racemic)

Ki [1]: 19.1 nM
SMILES: Cc1nc(C)c(CNc2nc(NCC(C)(C)Cc3ccccn3)nc(Cl)c2C)s1

Ki [1]: 58 nM
SMILES: Cc1nc(C)c(CNc2cc(Cl)nc3ccnn23)s1

Ki [1]: 0.03 nM
SMILES: Cc1nc(C)c(CNc2nc(OC[C@H]3C[C@@H]3c3ccccn3)nc(Cl)c2C)s1

Ki [1]: 0.01 nM
SMILES: Cc1ccnc(C2CC2COc2nc(Cl)c(C)c(NCc3sc(C)nc3C)n2)c1 (centres undefined)

IC50 [16]: 2200 nM
bioavailability [17]: 63%
EC50 [4]: > 25000 nM
fraction unbound [19]: 0.03
TDI [21]: Not Active
clearance [22]: 8.2 mL/min/kg
Ki [1]: 0.23 nM
Selectivity ratio [10]: > 5800
fraction unbound [7]: 0.09
half-life [26]: 2.8 h
fraction unbound [27]: 0.07
clearance [29]: 3.9 mL/min/kg
efflux ratio [31]: 0.6
half-life [32]: 8.7 h
half-life [34]: 4.9 h
fraction unbound [35]: 0.06
IC50 [6]: > 50000 nM
clearance [12]: 21 mL/min/kg
efflux ratio [38]: 0.7
Papp [39]: 36 ×10⁻⁶ cm/s
bioavailability [40]: 41%
logD [42]: 2
bioavailability [43]: 46%
SMILES: Cn1cc(CNc2cc(OC[C@H]3C[C@@H]3c3ccccn3)nc3ccnn23)cn1
Activity [13]: Active
Activity [14]: Non-toxic
Activity [15]: Non-toxic
INH [3]: > 60 µM
Activity [18]: Non-toxic
Occ50 [20]: 1.1 µM
Activity [23]: Toxic
Activity [24]: Toxic
Activity [25]: Toxic
Activity [28]: Dose-dependent effect
inhibition (INH) [30]: >150%
Activity [33]: Non-toxic
Activity [36]: Non-toxic
Ratio [37]: 2
Activity [41]: 130 nM
Activity [44]: Non-toxic

Ki [1]: 0.02 nM
SMILES: Cc1nc(C)c(CNc2nc(OCC3CC3c3ccc4ncccc4n3)nc(Cl)c2C)s1 (racemic)

Ki [1]: 0.01 nM
SMILES: COc1ccnc(C2CC2COc2nc(Cl)c(C)c(NCc3sc(C)nc3C)n2)c1 (racemic)

Ki [1]: 0.02 nM
SMILES: Cc1nc(C)c(CNc2nc(OCC3CC3c3cn(C)cn3)nc(Cl)c2C)s1 (racemic)
